# Laboratory results as given in US8883782B2, “Spiro-tetracyclic ring compounds as beta-secretase modulators and methods of use” (Amgen Inc., priority 2010, dated 2014).
# Read-outs that look alike come from different tables or passages of the source.
# How the values were obtained:
# [1] = system: Aβ40 in conditioned medium of cells stably expressing Amyloid Precursor Protein (APP); test: In vitro BACE cell-based assay (Aβ40 in conditioned medium, sandwich ELISA); settings: read-out: HEK cell assay
# In short: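 Secreted Aβ40 is captured with pAb40 and detected with biotinylated 6E10, read by europium time-resolved fluorescence. IC50 comes from percent inhibition versus concentration.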
# [2] = system: Abeta 40 in cerebrospinal fluid (CSF) and brain; test: In vivo inhibition of beta-secretase (Abeta 40 reduction in CSF and brain); settings: rat, after 4 hrs; for inhibition in vivo at 10 mg/kg: Abeta 40, 10 mg/kg (10 mpk); for inhibition in vivo at 3 mg/kg: Abeta 40, 3 mpk
# [3] = molecular target: Beta Secretase enzyme (BACE) (Homo sapiens, UniProt P56817); test: In vitro enzymatic BACE FRET (fluorescence resonance energy transfer) assay; format: biochemical; settings: average IC50, enzyme assay; read-out: BACE 1 FRET assay
# In short: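 Run in 0.05 M acetate pH 4.2 with 10% DMSO final and 100 uM genapol; started by adding 50 nM FRET peptide substrate (fluorophore and quencher flanking the cleavage site), incubated one hour, then stopped with Tris to neutral pH before reading fluorescence.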
# [4] = Homo sapiens, HEK293, average IC50, HEK cells
# [5] = CSF, read-out: CSF A-beta reduction % at 10 mg/kg
# [6] = brain, read-out: Brain A-beta reduction % at 10 mg/kg
# [7] = CSF, read-out: CSF A-beta reduction % at 3 mpk
# [8] = brain, read-out: Brain A-beta reduction % at 3 mpk
# [9] = Homo sapiens, HEK293, average IC50
# Chain of Beta Secretase enzyme (BACE) (P56817 46-501, species assumed): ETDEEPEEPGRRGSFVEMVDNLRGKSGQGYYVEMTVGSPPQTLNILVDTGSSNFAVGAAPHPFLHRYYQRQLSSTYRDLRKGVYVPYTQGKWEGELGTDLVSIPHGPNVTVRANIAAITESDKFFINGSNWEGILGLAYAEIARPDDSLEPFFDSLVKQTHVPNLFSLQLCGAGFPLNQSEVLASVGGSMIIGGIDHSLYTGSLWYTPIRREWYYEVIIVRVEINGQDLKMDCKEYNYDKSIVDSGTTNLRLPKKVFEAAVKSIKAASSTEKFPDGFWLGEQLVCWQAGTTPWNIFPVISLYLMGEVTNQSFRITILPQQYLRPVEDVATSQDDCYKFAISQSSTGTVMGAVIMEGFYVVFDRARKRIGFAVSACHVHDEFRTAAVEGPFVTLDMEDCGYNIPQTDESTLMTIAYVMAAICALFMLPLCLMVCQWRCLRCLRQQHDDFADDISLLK
Compound,"IC50 [1, 4] [nM]",IC50 [3] [nM],"IC50 ([1]; average IC50, HEK cells) [nM]","IC50 [1, 9] [nM]","inhibition in vivo at 10 mg/kg [2, 5] [%]","inhibition in vivo at 10 mg/kg [2, 6] [%]","inhibition in vivo at 3 mg/kg [2, 7] [%]","inhibition in vivo at 3 mg/kg [2, 8] [%]","CSF A-beta reduction % at 5 mpk ([2]; CSF, Abeta 40, 5 mpk) [% at 5 mpk]","Brain A-beta reduction % at 5 mpk ([2]; brain, Abeta 40, 5 mpk) [% at 5 mpk]"
"N#Cc1cccc(-c2ccc3c(c2)[C@@]2(COC(N)=N2)c2cc(N4CCOCC4)nc(F)c2O3)c1 [Example 894, 3-((5S)-2′-amino-1-fluoro-3-(4-morpholinyl)spiro[chromeno[2,3-c]pyridine-5,4′-[1,3]oxazol]-7-yl)benzonitrile]",10,0.3,,,75,69,,,,
"CC1(C#Cc2cc3c(nc2F)Oc2ccc(-c4cccnc4F)cc2[C@@]32COC(N)=N2)COC1 [Example 901, (5S)-2-fluoro-7-(2-fluoro-3-pyridinyl)-3-((3-methyl-3-oxetanyl)ethynyl)spiro[chromeno[2,3-b]pyridine-5,4′-[1,3]oxazol]-2′-amine]",,0.5,11,,56,44,,,,
"NC1=N[C@@]2(CO1)c1cc(-c3cccnc3)ccc1Oc1c2cc(N2CCC(F)(F)C2)nc1F [Example 916, (S)-3-(3,3-difluoropyrrolidin-1-yl)-1-fluoro-7-(pyridin-3-yl)-5′-H-spiro[chromeno[2,3-c]pyridine-5,4′-oxazol]-2′-amine]",5,0.4,,,61,44,,,,
"NC1=N[C@@]2(CO1)c1cc(-c3cncc(F)c3)ccc1Oc1c2cc(N2CCC(F)(F)C2)nc1F [Example 922, (S)-3-(3,3-difluoropyrrolidin-1-yl)-1-fluoro-7-(5-fluoropyridin-3-yl)-5′-H-spiro[chromeno[2,3-c]pyridine-5,4′-oxazol]-2′-amine]",9,0.4,,,,,69,57,,
"NC1=N[C@@]2(CO1)c1cc(-c3cncc(F)c3)ccc1Oc1c2cc(N2CCC(F)(F)CC2)nc1F [Example 927, (S)-3-(4,4-difluoropiperidin-1-yl)-1-fluoro-7-(5-fluoropyridin-3-yl)-5′-H-spiro[chromeno[2,3-c]pyridine-5,4′-oxazol]-2′-amine]",10,0.3,,,70,65,,,,
"CC#Cc1cncc(-c2ccc3c(c2)[C@@]2(COC(N)=N2)c2cc(C4=CCOCC4)cnc2O3)c1 [Example 942, (S)-3-(3,6-dihydro-2H-pyran-4-yl)-7-(5-(prop-1-ynyl)pyridin-3-yl)-5′H-spiro[chromeno[2,3-b]pyridine-5,4′-oxazol]-2′-amine]",1,0.4,,,,,57,42,,
"CC#Cc1cncc(-c2ccc3c(c2)[C@@]2(COC(N)=N2)c2cc(-c4cnn(C)c4)cc(F)c2O3)c1 [Example 947, (S)-4′-fluoro-2′-(1-methyl-1H-pyrazol-4-yl)-7′-(5-(prop-1-ynyl)pyridin-3-yl)-5H-spiro[oxazole-4,9′-xanthen]-2-amine]",4,0.4,,,,,22,25,,
"CC#Cc1cncc(-c2ccc3c(c2)[C@@]2(COC(N)=N2)c2cc(C#CC(C)(C)O)cc(F)c2O3)c1 [Example 951, (S)-4-(2-amino-5′-fluoro-2′-(5-(prop-1-ynyl)pyridin-3-yl)-5H-spiro[oxazole-4,9′-xanthene]-7′-yl)-2-methylbut-3-yn-2-ol]",4,0.6,,,,,17,13,,
"NC1=N[C@@]2(CS1)c1cc(-c3cccnc3F)ccc1Oc1c(F)cc(N3CCC(F)(F)CC3)cc12 [Example 1076, (S)-2′-(4,4-difluoropiperidin-1-yl)-4′-fluoro-7′-(2-fluoropyridin-3-yl)-5H-spiro[thiazole-4,9′-xanthen]-2-amine]",,0.4,,14,63,33,,,,
"NC1=N[C@@]2(CS1)c1cc(-c3cccnc3F)ccc1Oc1c(F)cc(N3CCC(F)(F)C3)cc12 [Example 1077, (S)-2′-(3,3-difluoropyrrolidin-1-yl)-4′-fluoro-7′-(2-fluoropyridin-3-yl)-5H-spiro[thiazole-4,9′-xanthen]-2-amine]",,0.3,,9,69,53,,,,

# More lines, main results first:
"IC50 [1, 4] [nM]",IC50 [3] [nM],"IC50 ([1]; average IC50, HEK cells) [nM]","IC50 [1, 9] [nM]",Compound,"inhibition in vivo at 10 mg/kg [2, 5] [%]","inhibition in vivo at 10 mg/kg [2, 6] [%]","inhibition in vivo at 3 mg/kg [2, 7] [%]","inhibition in vivo at 3 mg/kg [2, 8] [%]","CSF A-beta reduction % at 5 mpk ([2]; CSF, Abeta 40, 5 mpk) [% at 5 mpk]","Brain A-beta reduction % at 5 mpk ([2]; brain, Abeta 40, 5 mpk) [% at 5 mpk]"
8,0.4,,,"NC1=N[C@@]2(CS1)c1cc(-c3cccnc3F)ccc1Oc1cnc(C3=CCCOC3)cc12 [Example 928, (S)-3-(5,6-dihydro-2H-pyran-3-yl)-7-(2-fluoropyridin-3-yl)-5′H-spiro[chromeno[2,3-c]pyridine-5,4′-thiazol]-2′-amine]",82,71,,,,
,0.5,,14,"NC1=N[C@@]2(CS1)c1cc(-c3cccnc3F)ccc1Oc1cnc(N3CCOCC3)cc12 [Example 999, (S)-7-(2-fluoropyridin-3-yl)-3-morpholino-5′H-spiro[chromeno[2,3-c]pyridine-5,4′-thiazol]-2′-amine]",,,,,58,40
,0.3,,4,"NC1=N[C@@]2(CS1)c1cc(-c3cccnc3F)ccc1Oc1c2cc(C2=CCOCC2)nc1F [Example 1001, (S)-3-(3,6-dihydro-2H-pyran-4-yl)-1-fluoro-7-(2-fluoropyridin-3-yl)-5′H-spiro[chromeno[2,3-c]pyridine-5,4′-thiazol]-2′-amine]",,,73,62,,
,0.4,,7,"NC1=N[C@@]2(CS1)c1cc(-c3cccnc3F)ccc1Oc1c2cc(C2CCOCC2)nc1F [Example 1029, (S)-1-fluoro-7-(2-fluoropyridin-3-yl)-3-(tetrahydro-2H-pyran-4-yl)-5′H-spiro[chromeno[2,3-c]pyridine-5,4′-thiazol]-2′-amine]",83,73,,,,
,108,,563,"CC1(C)C=C(c2cc3c(c(F)n2)Oc2ccc(-c4cccnc4F)cc2[C@@]32CSC(N)=N2)CCO1 [Example 1033, (S)-3-(6,6-dimethyl-3,6-dihydro-2H-pyran-4-yl)-1-fluoro-7-(2-fluoropyridin-3-yl)-5′H-spiro[chromeno[2,3-c]pyridine-5,4′-thiazol]-2′-amine]",,,60,52,,
,2.1,,49,"Cc1cc(-c2cc3c(c(F)n2)Oc2ccc(-c4cccnc4F)cc2[C@@]32CSC(N)=N2)ccn1 [Example 1037, (S)-1-fluoro-7-(2-fluoropyridin-3-yl)-3-(2-methylpyridin-4-yl)-5′H-spiro[chromeno[2,3-c]pyridine-5,4′-thiazol]-2′-amine]",67,58,,,,
,0.3,,15,"CC(C)(F)COc1cc(F)c2c(c1)[C@]1(CSC(N)=N1)c1cc(-c3cccnc3F)ccc1O2 [Example 1067, (S)-4′-fluoro-2′-(2-fluoro-2-methylpropoxy)-7′-(2-fluoropyridin-3-yl)-5H-spiro[thiazole-4,9′-xanthen]-2-amine]",69,55,,,,
,0.4,,12,"NC1=N[C@@]2(CS1)c1cc(-c3cccnc3F)ccc1Oc1c(F)cc(-c3ncccn3)cc12 [Example 1079, (S)-4′-fluoro-7′-(2-fluoropyridin-3-yl)-2′-(pyrimidin-2-yl)-5H-spiro[thiazole-4,9′-xanthen]-2-amine]",67,54,,,,
,1.2,,18,"NC1=N[C@@]2(CS1)c1cc(-c3cccnc3F)ccc1Oc1c(F)cc(-c3cccnc3)cc12 [Example 1083, (S)-4′-fluoro-7′-(2-fluoropyridin-3-yl)-2′-(pyridin-3-yl)-5H-spiro[thiazole-4,9′-xanthen]-2-amine]",66,53,,,,
,7.5,,102,"NC1=N[C@@]2(CS1)c1cc(-c3cccnc3F)ccc1Oc1c(F)cc(N3C[C@@H]4C[C@H]3CO4)cc12 [Example 1084, (S)-2′-((1S,4S)-2-oxa-5-azabicyclo[2.2.1]heptan-5-yl)-4′-fluoro-7′-(2-fluoropyridin-3-yl)-5H-spiro[thiazole-4,9′-xanthen]-2-amine]",67,50,,,,
